From US20120041006A1, “Compositions for Raising Uric Acid Levels and Methods of Using the Same” (priority 1998, published 2012)

Assays:
[1] = Chickens given allopurinol to lower uric acid; glycosylation damage; type: in vivo
Experimental: The following example was conducted to establish the role of uric acid in protecting against the sequelia associated with diabetic damage. It is established that this sequelia occurs in diabetic patients due to increases in sugar levels that result from either the insufficient production of insulin or the insufficient breakdown of sugar by the insulin, depending of the type of diabetes. Sugar, in excess conditions, can become an oxidizer, which leads to oxidative damage in a patient. Glycosylated hemoglobin (HBA1C) is used to measure the amount of oxidative damage that results from excess sugar in a patient; increased (HBA1C) is the definition used for diabetes. […] Chickens are known to have excessively high sugar levels, and should be essentially in a diabetic state. […] To confirm the causal relationship between high levels of uric acid and prevention of glycosylation damage, chickens were given allopurinol. This compound specifically […].

[2] = Oral uric acid precursor in a person with Alzheimer's; type: in vivo, human; conditions: one Alzheimer's patient; 500-1,000 mg orally per day; upon raising uric acid levels

SMILES	signs of diabetic complications ([1]; after uric acid reduced to below normal levels)	uric acid levels ([1]; enough administered to effect significant conversion of uric acid)	levels of the chicken equivalent of A1C (glycosylated hemoglobin) ([1]; once uric acid reduced to below normal levels)	Alzheimer symptoms (not recognizing bathroom, incontinence, general cognitive decline) [2]
Oc1ncnc2[nH]ncc12 [allopurinol]	exhibited signs of diabetic complications	lowering of uric acid levels	increased dramatically	–
O=c1[nH]cnc2nc[nH]c12 [hypoxanthine]	–	–	–	reduced
OC[C@H]1O[C@@H](n2cnc3c(O)ncnc32)[C@H](O)[C@@H]1O [inosine]	–	–	–	reduced
